Results reported in patent US12544375B2, “Small molecule therapeutic for parkinson's disease paired with a biomarker of therapeutic activity” (The Board of Trustees of the Leland Stanford Junior …, priority 2019, dated 2026).

Columns and labels:
Miro1 = target: T1, Miro1 (Homo sapiens, UniProt Q8IXI2); test: Miro1 response to CCCP in PD fibroblasts, Western blotting; assay type: cell-based
T1 construct: We applied compound 3 to fibroblasts from one sporadic PD patient (PD-2); endogenous in cells; host or cells: human skin fibroblasts (PD-2, Healthy-1 and further PD/control lines)
T1 sequence (Q8IXI2 whole entry): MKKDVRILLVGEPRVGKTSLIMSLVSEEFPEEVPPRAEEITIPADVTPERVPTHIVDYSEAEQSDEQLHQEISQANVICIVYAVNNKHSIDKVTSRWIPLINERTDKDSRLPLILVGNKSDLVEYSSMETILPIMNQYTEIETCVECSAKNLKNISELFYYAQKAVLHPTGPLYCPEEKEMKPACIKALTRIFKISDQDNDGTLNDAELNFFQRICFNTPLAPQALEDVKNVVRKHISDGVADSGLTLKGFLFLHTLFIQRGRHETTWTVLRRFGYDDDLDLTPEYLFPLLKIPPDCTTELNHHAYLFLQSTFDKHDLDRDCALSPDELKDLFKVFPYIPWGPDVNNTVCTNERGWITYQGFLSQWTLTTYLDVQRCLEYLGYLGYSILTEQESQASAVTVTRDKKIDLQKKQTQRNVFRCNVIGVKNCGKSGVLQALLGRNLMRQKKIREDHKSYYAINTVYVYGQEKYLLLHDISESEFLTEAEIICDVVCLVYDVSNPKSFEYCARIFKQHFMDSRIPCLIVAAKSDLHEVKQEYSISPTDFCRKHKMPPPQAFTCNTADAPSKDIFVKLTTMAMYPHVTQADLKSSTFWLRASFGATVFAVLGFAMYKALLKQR
Method: FIG. 2A-FIG. 2F. Miro1 Reducer Eliminates the Miro1 Defect in PD Fibroblasts. (FIG. 2A) Chemical properties of Miro1 Reducer. (FIG. 2B) Wild-type flies (w^1118) were fed with DMSO alone (0 μM Miro1 Reducer) or Miro1 Reducer in DMSO at 250 μM for 7 days, and lysed and blotted as indicated. The band intensities are normalized to those of Tubulin from the same blots. n=4. (FIG. 2C-FIG. 2E) Fibroblasts were treated, lysed, and blotted as indicated. (FIG. 2C) Band intensities are normalized to those of GAPDH from the same blots and compared to “Healthy-1, no treatment” except otherwise indicated. n=4. (FIG. 2D) Band intensities are normalized to those of ATP5β from the same blots and expressed as a percentage of the mean of “0 μM Miro1 Reducer with CCCP”. Mean±S.E.M is shown. n=3. (FIG. 2E) Band intensities are normalized to those of GAPDH from the same blots and compared to “Healthy-1, no CCCP, no MG132” except otherwise indicated. n=4. (FIG. 2F) Healthy-1 and PD-2 fibroblasts were transfected as indicated, and immunostained with anti-Myc (Miro1, green) and stained with Dapi (blue). The Miro1 intensity is normalized to that of mito-dsRed from the same cell and quantified across 37-62 cells from 5 fields each transfection, 3 independent transfections. Scale bars: 50 μm. For (FIG. 2C-FIG. 2F), both CCCP and Miro1 Reducer were dissolved in DMSO. Cells were pretreated with Miro1 Reducer 24 hrs before the application of CCCP for another 6 hrs. The same volume of DMSO was applied at the same time in negative controls.
FIG. 3A-FIG. 3D. Miro1 Reducer Rescues Parkinson's Neurodegeneration. (FIG. 3A) Fibroblasts were treated, lysed, and blotted as indicated. Band intensities are normalized to those of ATP5β from the same blots and compared to “Healthy-2, no treatment”. n=4. (FIG. 3B-FIG. 3C) iPSC-derived neurons were treated as indicated and immunostained with anti-TH (FIG. 3B) or stained with PI and Dapi (FIG. 3C). Both Antimycin A and Miro1 Reducer were dissolved in ethanol. Neurons were pretreated with Miro1 Reducer 24 hrs before the application of Antimycin A for another 6 hrs. The same volume of ethanol was applied at the same time in negative controls. (FIG. 3B) The density of TH-positive neurons is calculated in each condition under 20×, from 10 fields each experiment, 3-4 experiments. […] (FIG. 3C) The percentage of PI-positive cells out of total cells (Dapi-positive) is calculated. n=20 fields each experiment, 4 experiments. […] Graphs of Mean±S.E.M show the percent of time each mitochondrion is in motion (red and blue, compared to “Wild-type-I, before treatment”), and the mitochondrial intensity normalized to that of the same axonal region at “0 min” and expressed as a fraction of the mean of “Wild-type-I, 0 min”. n=33-77 mitochondria from 5-8 axons from 5-8 separate transfections. […]

[1] = test system: iPSC-derived dopaminergic neurons from PD patients; test: Antimycin A stress-induced neurodegeneration of iPSC-derived dopaminergic neurons (TH, PI staining); assay type: cell-based, human; settings: 5 μM for 30 hrs, 10 μM Antimycin A for 6 hrs, neurons from both PD patients
Method: FIG. 3A-FIG. 3D. Miro1 Reducer Rescues Parkinson's Neurodegeneration. (FIG. 3A) Fibroblasts were treated, lysed, and blotted as indicated. Band intensities are normalized to those of ATP5β from the same blots and compared to “Healthy-2, no treatment”. n=4. (FIG. 3B-FIG. 3C) iPSC-derived neurons were treated as indicated and immunostained with anti-TH (FIG. 3B) or stained with PI and Dapi (FIG. 3C). Both Antimycin A and Miro1 Reducer were dissolved in ethanol. Neurons were pretreated with Miro1 Reducer 24 hrs before the application of Antimycin A for another 6 hrs. The same volume of ethanol was applied at the same time in negative controls. (FIG. 3B) The density of TH-positive neurons is calculated in each condition under 20×, from 10 fields each experiment, 3-4 experiments. […] (FIG. 3C) The percentage of PI-positive cells out of total cells (Dapi-positive) is calculated. n=20 fields each experiment, 4 experiments. For (FIG. 3B-FIG. 3C), comparisons with “Wild-type-I, no treatment” except otherwise indicated. […] Graphs of Mean±S.E.M show the percent of time each mitochondrion is in motion (red and blue, compared to “Wild-type-I, before treatment”), and the mitochondrial intensity normalized to that of the same axonal region at “0 min” and expressed as a fraction of the mean of “Wild-type-I, 0 min”. n=33-77 mitochondria from 5-8 axons from 5-8 separate transfections. […]

## O=C(Nc1ccc(Nc2cc(-n3ccnc3)ncn2)cc1)Nc1cccc(F)c1 [Miro1 Reducer]
Miro1; PD-2 fibroblasts, 10 μM for 30 hrs, CCCP 6 hrs
  Miro1 degradation following CCCP treatment: robustly promoted Miro1 degradation
Miro1; PD-2 fibroblasts, following CCCP treatment
  reduction of Miro1 protein in presence of proteasome inhibitor MG132: blocked by the proteasome inhibitor MG132
Miro1; additional 4 control and 4 sporadic PD fibroblast cell lines
  Miro1 degradation after depolarization in additional lines: same beneficial change of Miro1 degradation after depolarization
Miro1; fibroblasts pretreated 24 hrs, then CCCP 6 hrs, FIG. 2D, read-out: Miro1 protein levels, dose-dependent response (IC50)
  IC50: 7.8 µM
[1]
  stress-induced neurodegeneration of dopaminergic neurons: completely rescued
